Assay results reported in ChEMBL document CHEMBL4477230, “Cytotoxic effect of levoglucosenone and related derivatives against human hepatocarcinoma cell lines” (Bioorg Med Chem Lett, 2016).
pIC50: −log10 of the molar value.

Key:
Assay type in all cases: functional, cell-based; call rule not given here
HepG2 [1] = test: Cytotoxicity against human HepG2 cells assessed as reduction in cell growth after 48 hrs by MTT assay; details: for pIC50: Homo sapiens, HepG2, 48 h, read-out: IC50; for IC50: hepg2
Huh-7 [2] = test: Cytotoxicity against human HuH7 cells assessed as reduction in cell growth after 48 hrs by MTT assay; details: for pIC50: Homo sapiens, Huh-7, 48 h, read-out: IC50; for IC50: huh-7
Huh-7 [3] = test: Cytotoxicity against human HuH7 cells assessed as reduction in cell growth after 48 hrs by MTS assay; details: Huh-7, 48 h
HepG2 [4] = test: Cytotoxicity against human HepG2 cells assessed as reduction in cell growth after 48 hrs by MTS assay; details: HepG2, 48 h

Row | SMILES | pIC50 (HepG2 [1]) | pIC50 (Huh-7 [2]) | IC50 (HepG2 [1]) | IC50 (Huh-7 [2]) | other results
1 | O=c1[nH]cc(F)c(=O)[nH]1 [FLUOROURACIL] | 3.69 | 3.41 |  |  | 
2 | Cc1ccc(S[C@H]2CC(O)[C@@H]3OC[C@H]2O3)cc1 (some centres undefined) |  |  | Not Active | Not Active | 
3 | Cc1ccc(S[C@H]2CC(=O)[C@@H]3OC[C@H]2O3)cc1 | 4.56 | 4.89 |  |  | 
4 | CCCCCCS[C@H]1CC(=O)[C@@H]2OC[C@H]1O2 |  |  | Not Active | Not Active | 
5 | CCCCS[C@H]1CC(O)[C@@H]2OC[C@H]1O2 (some centres undefined) |  |  | Not Active | Not Active | 
6 | O=C1C=C[C@H]2CO[C@@H]1O2 | 4.40 | 4.89 |  |  | 
7 | CCCCS[C@H]1CC(=O)[C@@H]2OC[C@H]1O2 |  |  | Not Active | Not Active | 
8 | O=C1C[C@H](n2c(=O)oc3ccccc32)[C@H]2CO[C@@H]1O2 | 4.65 | 5.06 |  |  | 
9 | CNC(=O)c1cc(Oc2ccc(NC(=O)Nc3ccc(Cl)c(C(F)(F)F)c3)cc2)ccn1 [SORAFENIB] |  |  |  |  | pIC50 (Huh-7 [3]): 4.95; pIC50 (HepG2 [4]): 4.92
10 | O=C1C[C@H](Sc2ccccc2)[C@H]2CO[C@@H]1O2 | 4.77 | 4.96 |  |  | 
11 | COc1cccc2c1C(=O)c1c(O)c3c(c(O)c1C2=O)C[C@@](O)(C(=O)CO)C[C@@H]3O[C@H]1C[C@H](N)[C@H](O)[C@H](C)O1 [DOXORUBICIN] | 6.17 | 6.62 |  |  | 
12 | O=C1C(Br)=C[C@H]2CO[C@@H]1O2 | 4.86 | 5.33 |  |  | 
